The values below come from patent US20240358663A1, “COMPOSITIONS AND METHODS FOR THE TREATMENT OF PULMONARY ARTERIAL HYPERTENSION” (The Regents of the University of Michigan, priority 2016, published 2024).

Entries after “also recorded” stand apart in the source; their conditions may differ.

This experiment relates to CD39^+/+ and CD39^−/− mice exposed to hypoxia. Nature of the experiment: Ectonucleotidase reconstitution and P2X1 receptor blocking in murine chronic hypoxia model of pulmonary hypertension. It is filed as in vivo, mouse. To be noted: for development of pulmonary hypertension (PH): continuous infusion during four weeks of hypoxia, CD39^+/+ and CD39^−/− mice; for pulmonary arterial pressures: continuous administration. An excerpt:
Seven-week-old CD39^+/+ and CD39^−/− mice were maintained at 10% oxygen (normobaric) for four weeks using a purpose-built, normobaric hypoxia chamber with automated oxygen-regulating capability. Circulating air was scavenged using charcoal and soda lime (Sigma-Aldrich, St. Louis, MO). Temperature and humidity were monitored, and the latter maintained within normal limits using Dririte (Sigma-Aldrich, St. Louis, MO). Normoxic control mice were maintained in the same room at 21% oxygen, which was verified by a continuous oxygen sensor (BioSpherix, Lacona, NY). All animals were given free access to food and water, and were maintained on a 12-hour dark/light cycle.
Mice were anesthetized using 2% isoflurane. A tracheostomy was performed, and animals were ventilated using 21% or 10% oxygen administered thorough the ventilator circuit. Optimal ventilator settings were confirmed using arterial blood gas measurements. After a median sternotomy was performed, hemodynamic measurements were made using a 1.2F solid state pressure catheter (Scisense Transonic, London, ON) inserted through the right ventricular (RV) free wall into the RV cavity and advanced into the pulmonary artery (PA). Placement was verified using the pressure waveform. Data including the right ventricular systolic pressure (RVSP) and mean PA (mPA) pressures were collected and analyzed using LabScribe2 (iWorx, Dover, NH). Continuous EKG monitoring was performed using the MouseMonitor (Indus Instruments, Webster, TX).
Alzet osmotic pumps (DURECT, Cupertino, CA) were used to deliver either 15 units of
apyrase (A6410, Sigma-Aldrich, St. Louis, MO), 25 mM of NF279 (Tocris Bioscience/Bio-Techne, Minneapolis, MN) or sterile 0.9% sodium chloride over a four-week period at a rate of 0.11 μl/hr.
Based upon findings of increased intravascular ATP and ADP, significant up-regulation of the P2X1 receptor, and severe pulmonary hypertension in hypoxic CD39-mice, two sets of rescue experiments were designed aimed at reversing the PH phenotype. The first rescue experiment involved the reconstitution of intravascular ectonucleotidase activity. Soluble potato tuber apyrase has known ATPase and ADPase activity, and has been used in prior studies involving CD39^−/− mice (ref. 24, 44; incorporated by reference in their entireties). Sequence homology of this apyrase is similar to human and murine CD39 (ref. 19; incorporated by reference in its entirety). […] The second rescue experiment involved the continuous infusion of NF279 (8,8′-[Carbonylbis (imino-4,1-phenylenecarbonylimino-4,1-phenylenecarbonylimino)]bis-1,3,5-naphthalenetrisulfonic acid hexasodium salt):
a sensitive and specific P2X1 antagonist, during four weeks of hypoxia. […] Pulmonary Vessels from Patients with IPAH have Increased P2X1 Receptors

As for `O=C(Nc1ccc(C(=O)Nc2ccc(C(=O)Nc3ccc(S(=O)(=O)[O-])c4cc(S(=O)(=O)[O-])cc(S(=O)(=O)[O-])c34)cc2)cc1)Nc1ccc(C(=O)Nc2ccc(C(=O)Nc3ccc(S(=O)(=O)[O-])c4cc(S(=O)(=O)[O-])cc(S(=O)(=O)[O-])c34)cc2)cc1.[Na+].[Na+].[Na+].[Na+].[Na+].[Na+]` [NF279, 8,8′-[Carbonylbis (imino-4,1-phenylenecarbonylimino-4,1-phenylenecarbonylimino)]bis-1,3,5-naphthalenetrisulfonic acid hexasodium salt, reference compound], the “development of pulmonary hypertension (PH)” value (FIG. 5c) is “prevented the development of PH in all groups; also recorded: protected both CD39^+/+ and CD39-4-mice from the development of hypoxic pulmonary hypertension”. Besides, the pulmonary arterial pressures result (hypoxic CD39^−/− mice) was “lowered pulmonary arterial pressures even further”.
In the case of apyrase, for the setting “FIG. 5c”, the “development of pulmonary hypertension (PH)” value is “provided partial protection against the development of pulmonary hypertension”. The “right ventricular systolic pressure (RVSP)” value (continuous subcutaneous administration during four weeks of hypoxia (10% oxygen), compared to control mice that received continuous saline infusions, FIG. 5c) is “significantly decreased the RVSP”. Further, the pulmonary arterial pressures entry (hypoxic CD39^−/− mice) is recorded as “decreased pulmonary arterial pressures in hypoxic CD39-mice to levels found in hypoxic CD39^+/+ controls”. Also, where the note is “hypoxic CD39^−/− mice, four weeks of continuous administration, FIG. 5c”, the “RVSP relative to levels found in normoxic CD39^+/+ mice” value is listed as “did not decrease the RVSP in hypoxic CD39^−/− mice to levels found in normoxic CD39^+/+ mice”.
